Where two headings read alike, the source gives them in different places.
Legend:
Smon0127 = biological target: T1, Smon0127 (Streptobacillus moniliformis, UniProt D1AWE4); experiment: UGL enzyme assay, decrease of absorbance at […] nm; type: biochemical
T1 construct: gene Smon_0127; recombinant Smon0127

[1] = biological target: T2, Smon0121-Smon0122(10xHis)/Smon0120-Smon0120 (Streptobacillus moniliformis, UniProt D1AWD7); details: detergent-solubilised transporter
T2 construct: gene Smon_0120

Smon0123 = Smon0123 (Streptobacillus moniliformis, UniProt D1AWE0); experiment: X-ray crystal structure; tryptophan fluorescence titration; DSF; type: binding; parameters: gene Smon_0123; Smon0123 (N-18/C-5) in the crystal; recombinant Smon0123 in solution
Smon0123, sequence (D1AWE0 entry or part of it): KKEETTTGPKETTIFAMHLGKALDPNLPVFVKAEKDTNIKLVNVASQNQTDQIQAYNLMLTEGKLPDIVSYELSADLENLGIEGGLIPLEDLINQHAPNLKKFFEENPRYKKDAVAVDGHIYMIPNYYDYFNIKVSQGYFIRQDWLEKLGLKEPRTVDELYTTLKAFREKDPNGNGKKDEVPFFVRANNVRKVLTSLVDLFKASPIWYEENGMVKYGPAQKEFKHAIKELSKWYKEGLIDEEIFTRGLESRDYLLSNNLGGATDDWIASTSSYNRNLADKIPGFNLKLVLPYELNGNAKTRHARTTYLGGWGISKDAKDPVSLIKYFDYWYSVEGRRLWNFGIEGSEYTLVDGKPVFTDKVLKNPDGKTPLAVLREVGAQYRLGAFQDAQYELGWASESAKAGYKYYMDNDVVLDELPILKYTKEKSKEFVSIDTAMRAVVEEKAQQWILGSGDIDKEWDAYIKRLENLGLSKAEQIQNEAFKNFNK

T1 sequence (D1AWE4 entry or part of it): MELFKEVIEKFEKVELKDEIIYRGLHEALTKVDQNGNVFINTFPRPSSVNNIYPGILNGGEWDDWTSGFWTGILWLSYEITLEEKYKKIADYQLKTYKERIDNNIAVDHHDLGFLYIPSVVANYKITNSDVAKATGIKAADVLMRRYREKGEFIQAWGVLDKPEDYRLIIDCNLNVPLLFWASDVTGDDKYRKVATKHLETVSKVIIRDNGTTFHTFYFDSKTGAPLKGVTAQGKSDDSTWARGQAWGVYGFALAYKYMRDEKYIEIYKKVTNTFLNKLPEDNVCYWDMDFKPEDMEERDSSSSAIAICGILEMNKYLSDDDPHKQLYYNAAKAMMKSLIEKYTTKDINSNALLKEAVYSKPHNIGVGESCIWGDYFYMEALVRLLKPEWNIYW
T2 sequence (D1AWD7 entry or part of it): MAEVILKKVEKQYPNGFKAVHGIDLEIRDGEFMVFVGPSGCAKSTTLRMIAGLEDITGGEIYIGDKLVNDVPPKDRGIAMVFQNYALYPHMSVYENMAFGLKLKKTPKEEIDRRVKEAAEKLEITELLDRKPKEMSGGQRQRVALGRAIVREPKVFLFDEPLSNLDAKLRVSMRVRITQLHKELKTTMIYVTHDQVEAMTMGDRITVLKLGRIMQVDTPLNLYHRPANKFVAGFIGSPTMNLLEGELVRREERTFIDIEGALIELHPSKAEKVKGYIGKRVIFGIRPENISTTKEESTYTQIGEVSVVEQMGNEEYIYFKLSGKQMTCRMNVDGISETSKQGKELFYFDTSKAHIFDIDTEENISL
T2 sequence (D1AWD8 entry or part of it, further chain): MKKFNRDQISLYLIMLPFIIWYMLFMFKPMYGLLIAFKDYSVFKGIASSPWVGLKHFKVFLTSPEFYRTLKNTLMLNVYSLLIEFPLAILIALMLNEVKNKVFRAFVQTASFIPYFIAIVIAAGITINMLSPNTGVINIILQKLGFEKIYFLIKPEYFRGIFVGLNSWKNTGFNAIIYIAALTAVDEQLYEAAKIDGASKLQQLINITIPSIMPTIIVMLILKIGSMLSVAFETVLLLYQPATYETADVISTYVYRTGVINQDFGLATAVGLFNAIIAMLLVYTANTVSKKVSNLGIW
T2 sequence (D1AWD9 entry or part of it, further chain): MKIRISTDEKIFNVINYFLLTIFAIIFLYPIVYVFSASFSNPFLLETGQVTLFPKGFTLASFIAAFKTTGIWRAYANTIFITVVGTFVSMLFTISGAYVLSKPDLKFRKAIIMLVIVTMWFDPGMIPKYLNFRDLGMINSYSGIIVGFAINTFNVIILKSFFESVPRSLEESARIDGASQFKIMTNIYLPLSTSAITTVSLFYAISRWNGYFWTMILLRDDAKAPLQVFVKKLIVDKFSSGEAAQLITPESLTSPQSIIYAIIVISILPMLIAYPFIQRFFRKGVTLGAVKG

| SMILES | UGL enzyme assay, decrease of absorbance at 235 nm (Smon0127) | phosphate release from ATP [1] | Kd (Smon0123; read-out: Kd) | Kd (Smon0123) |
| --- | --- | --- | --- | --- |
| CC(=O)N[C@H]1C(O)O[C@H](CO)[C@H](OS(=O)(=O)O)[C@@H]1O[C@@H]1OC(C(=O)O)=C[C@H](O)[C@H]1O (stereo partly shown) [CΔ4S] | 0.342 units/mg |  |  |  |
| CC(=O)N[C@H]1C(O)O[C@H](CO)[C@@H](O)[C@@H]1O[C@@H]1OC(C(=O)O)=C[C@H](O)[C@H]1O (stereo partly shown) [ΔHA] | 2.26 units/mg |  |  |  |
| Nc1ncnc2c1ncn2[C@@H]1O[C@H](COP(=O)(O)OP(=O)(O)OP(=O)(O)O)[C@@H](O)[C@H]1O [ATP] |  | in the soluble form with detergents exhibited ATPase activity |  |  |
| CC(=O)N[C@H]1C(O)O[C@H](CO)[C@H](O)[C@@H]1O[C@@H]1OC(C(=O)O)=C[C@H](O)[C@H]1O (stereo partly shown) [CΔ0S] | 4.46 units/mg |  | 635 ± 122 nM |  |
| CC(=O)N[C@H]1C(O)O[C@H](COS(=O)(=O)O)[C@H](O)[C@@H]1O[C@@H]1OC(C(=O)O)=C[C@H](O)[C@H]1O (stereo partly shown) [CΔ6S] | 0.272 units/mg |  |  | 5GX6 for Smon0123/C∆4S, 5GX7 for Smon0123/C∆6S |
